Data published in paper PMC11991097 (2025).

Assays:
[1] = test system: Del-1 (DNA, aptamer) ACCGACCGTGCTGGACTCTAAGGTGGAGTTATAGGCTTACTGCCACGTCAGTATGAGCGAGCGTTGCG; assay: magnetic bead elution; AuNP/PDDA colorimetry; conditions: 50 μg/mL (beads), 2 μg/mL (colorimetry, MOPS); elution much lower than Del; ΔA650/A520 about 0.4
[2] = test system: Del-1 (DNA, aptamer) ACCGACCGTGCTGGACTCTAAGGTGGAGTTATAGGCTTACTGCCACGTCAGTATGAGCGAGCGTTGCG; assay: magnetic bead elution, ssDNA absorbance, nonlinear fit; conditions: PBS screening buffer; room temperature, 2 h; Del fixed 50 μg/mL, aptamer varied 50–500 nM; capture strand P displaced

binding [1] | Kd [2] [µM] | Compound
weak |  | CC1(C)C(C(=O)OC(C#N)c2cccc(Oc3ccccc3)c2)C1(C)C (stereo not drawn)
 | 0.0829 ± 0.006272 | CC1(C)[C@H](C(=O)O[C@H](C#N)c2cccc(Oc3ccccc3)c2)[C@@H]1C=C(Br)Br
weak |  | CC1(C)C(C=C(Cl)Cl)C1C(=O)OC(C#N)c1cccc(Oc2ccccc2)c1 (stereo not drawn)
